Molecules are shown by their SMILES.

The assay has as its system SARS-CoV-2 viral strains (including the original Wuhan strain and Delta and Omicron variants). Put plainly: Replication of SARS-CoV-2 viral strains in A549-ACE2 cell model (FIG. 2). The class given is cell-based. The following applies: done in triplicate.

With `O=c1[nH]/c(=N\O)ccn1[C@@H]1C2=CCC[C@@H](O)[C@@H]2[C@@H](O)[C@H]1O` [Compound 48, 4-(hydroxyimino)-1-((1R,2S,3R,3aR,4R)-2,3,4-trihydroxy-2,3,3a,4,5,6-hexahydro-1H-inden-1-yl)-3,4-dihydropyrimidin-2(1H)-one], the “replication of different SARS-CoV-2 viral strains” value was “inhibits the replication”.

The record behind these values is US20230357168A1, “CARBOBICYCLIC NUCLEOSIDES FOR TREATMENT OF VIRAL INFECTION” (The Chinese University of Hong Kong, priority 2022, published 2023).
